Data published in PMC4126480, “Evaluation of drug interaction potential of Labisia pumila (Kacip Fatimah) and its constituents” (Frontiers in Pharmacology, 2014).

What was measured:
CYP2C19 = molecular target: T1, CYP2C19 (Homo sapiens, UniProt P33261); assay: Time dependent inhibition (pre-incubation assay) of recombinant CYP2C19; assay type: in vitro ADME; conditions: recombinant CYP2C19, 30 min pre-incubation
T1 construct: purchased BD Gentest (Woburn, MA, USA); host or cells: baculovirus expression system
T1 sequence (P33261 whole entry): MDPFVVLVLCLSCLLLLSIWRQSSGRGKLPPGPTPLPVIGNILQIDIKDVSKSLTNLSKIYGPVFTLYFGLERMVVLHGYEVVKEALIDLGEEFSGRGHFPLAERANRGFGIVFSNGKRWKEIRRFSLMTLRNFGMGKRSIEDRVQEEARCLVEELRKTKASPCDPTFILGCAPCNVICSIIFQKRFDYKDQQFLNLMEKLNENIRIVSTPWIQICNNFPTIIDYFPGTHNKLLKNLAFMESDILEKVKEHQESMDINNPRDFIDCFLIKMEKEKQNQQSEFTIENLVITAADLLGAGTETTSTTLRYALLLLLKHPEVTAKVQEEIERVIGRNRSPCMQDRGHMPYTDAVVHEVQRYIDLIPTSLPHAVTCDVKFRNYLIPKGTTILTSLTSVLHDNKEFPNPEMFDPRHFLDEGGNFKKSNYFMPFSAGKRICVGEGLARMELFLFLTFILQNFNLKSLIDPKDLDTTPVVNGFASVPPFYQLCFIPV
Method: Time dependent inhibition (TDI) of CYPs was measured as described earlier by [Sekiguchi et al. (2009)]. The reaction mixture (180–190 μL), consisting of test sample, recombinant enzyme, control protein (0.05 mg of protein/mL), cofactor mix, G-6-PDH, and 50 mM potassium phosphate buffer (pH 7.4) was pre-incubated for 30 min followed by addition of respective fluorescent substrates (10–20 μL) and further incubation for 15 (CYP1A2), 30 (CYP3A4), or 45 (CYP 2C9 and 2C19) min. The reaction was terminated by addition of 75 μL of ice cold acetonitrile/0.5 M Tris base (80:20) and fluorescence was measured as above. IC50 values (pre-incubation assay) were obtained as above. The shift in the concentration-response curve was calculated as the ratio of IC50 (co-incubation)/IC50 (pre-incubation).

CYP1A2 [1] = molecular target: T2, CYP1A2 (Homo sapiens, UniProt P05177); assay: Reversible inhibition of recombinant CYP1A2; assay type: in vitro ADME
T2 construct: purchased BD Gentest (Woburn, MA, USA); host or cells: baculovirus expression system
T2 sequence (P05177 1-516): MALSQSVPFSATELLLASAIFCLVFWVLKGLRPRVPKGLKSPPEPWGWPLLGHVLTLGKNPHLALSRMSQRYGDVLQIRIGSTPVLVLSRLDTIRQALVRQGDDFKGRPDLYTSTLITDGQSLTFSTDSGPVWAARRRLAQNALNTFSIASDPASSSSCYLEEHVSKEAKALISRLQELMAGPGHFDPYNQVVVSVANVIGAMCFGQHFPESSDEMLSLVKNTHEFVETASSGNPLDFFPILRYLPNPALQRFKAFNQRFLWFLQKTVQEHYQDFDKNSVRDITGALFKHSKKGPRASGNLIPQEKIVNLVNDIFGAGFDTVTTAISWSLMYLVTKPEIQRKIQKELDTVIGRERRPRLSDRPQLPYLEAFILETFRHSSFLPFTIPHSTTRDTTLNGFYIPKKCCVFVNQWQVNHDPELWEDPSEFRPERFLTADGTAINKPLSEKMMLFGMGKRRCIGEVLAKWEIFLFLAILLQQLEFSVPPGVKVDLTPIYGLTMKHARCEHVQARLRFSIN
Method: The assay for reversible inhibition was conducted in a total volume of 200 μL in 96-well microplates. The assay conditions, enzyme and substrate concentrations were similar as reported earlier ([Crespi et al., 1997]; [Manda et al., 2013]). Test samples or positive controls were serially diluted in a solution (100 μL) of cofactors mix, control protein (0.05 mg of protein/mL), and G-6-PDH to achieve six concentrations (100-0.4 μM or μg/mL). Initial readings were taken to record any inherent fluorescence and the plates were incubated at 37°C for 10 min. Reaction was initiated by the addition of enzyme substrate mixture (100 μL) followed by incubation for 15, 30, or 45 min. The reaction was terminated by the addition of 75 μL of ice cold acetonitrile/0.5 M Tris base (80:20). Fluorescence was measured on Spectramax M5 plate reader (Molecular Devices, Sunnyvale, CA, USA) at specified excitation and emission wavelengths for each substrate. IC50 values (co-incubation assay) were obtained from concentration-response curves generated by plotting concentration versus % inhibition.

CYP1A2 [2] = molecular target: T2, CYP1A2; assay: Prediction of in vivo HDI from in vitro results, CYP1A2; conditions: for Likelihood of causing HDI: CYP1A2, IC50 compared with estimated GIT and plasma concentrations; for Plasma concentration: Table 3, CYP1A2 section
Method: (§1) All assumptions to predict the HDI potential of KF methanolic extract and its constituents were according to previously published report ([Awortwe et al., 2014]). The % yield was calculated from the amounts extracted from the KF roots ([Ali and Khan, 2011]). The human GIT volume is 250 mL and plasma volume is about 3 L. The commonly used maximum dose of KF extract capsules is 560 mg per day ([Abdul Kadir et al., 2012]) and accordingly we estimated the concentration per dose, GIT, and plasma concentrations of extract and its constituents. We then compared the in vitro IC50 values obtained from recombinant CYPs with estimated GIT and plasma concentrations. If the IC50 values were lower than the GIT or plasma concentration, then the test compound or extract is likely to cause HDI in vivo.

CYP3A4 = molecular target: T3, CYP3A4 (Homo sapiens, UniProt P08684); assay: Prediction of in vivo HDI from in vitro results, CYP3A4; design: key to Likelihood of causing HDI: If the IC50 values were lower than the GIT or plasma concentration, then the test compound or extract is likely to cause HDI in vivo; conditions: for Likelihood of causing HDI: CYP3A4, IC50 compared with estimated GIT and plasma concentrations; for Plasma concentration: Table 3, CYP3A4 section
T3 construct: purchased BD Gentest (Woburn, MA, USA); host or cells: baculovirus expression system
T3 sequence (P08684 whole entry): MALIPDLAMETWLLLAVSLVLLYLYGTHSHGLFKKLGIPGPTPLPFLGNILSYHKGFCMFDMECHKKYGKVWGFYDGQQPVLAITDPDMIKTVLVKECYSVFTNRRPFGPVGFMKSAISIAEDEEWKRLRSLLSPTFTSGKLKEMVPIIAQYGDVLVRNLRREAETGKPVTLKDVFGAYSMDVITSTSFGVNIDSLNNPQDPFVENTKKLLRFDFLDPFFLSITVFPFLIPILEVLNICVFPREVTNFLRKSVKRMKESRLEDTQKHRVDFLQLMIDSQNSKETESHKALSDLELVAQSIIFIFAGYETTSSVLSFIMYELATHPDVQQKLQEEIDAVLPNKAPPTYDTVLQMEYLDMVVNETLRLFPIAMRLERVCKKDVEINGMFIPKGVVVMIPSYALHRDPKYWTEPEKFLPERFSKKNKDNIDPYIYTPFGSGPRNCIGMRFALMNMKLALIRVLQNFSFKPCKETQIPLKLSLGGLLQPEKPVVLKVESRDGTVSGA
Method: as §1

CYP2C9 = molecular target: T4, CYP2C9 (Homo sapiens, UniProt P11712); assay: Prediction of in vivo HDI from in vitro results, CYP2C9; design: key to Likelihood of causing HDI: If the IC50 values were lower than the GIT or plasma concentration, then the test compound or extract is likely to cause HDI in vivo; conditions: for Likelihood of causing HDI: CYP2C9, IC50 compared with estimated GIT and plasma concentrations; for Plasma concentration: Table 3, CYP2C9 section
T4 construct: purchased BD Gentest (Woburn, MA, USA); host or cells: baculovirus expression system
T4 sequence (P11712 whole entry): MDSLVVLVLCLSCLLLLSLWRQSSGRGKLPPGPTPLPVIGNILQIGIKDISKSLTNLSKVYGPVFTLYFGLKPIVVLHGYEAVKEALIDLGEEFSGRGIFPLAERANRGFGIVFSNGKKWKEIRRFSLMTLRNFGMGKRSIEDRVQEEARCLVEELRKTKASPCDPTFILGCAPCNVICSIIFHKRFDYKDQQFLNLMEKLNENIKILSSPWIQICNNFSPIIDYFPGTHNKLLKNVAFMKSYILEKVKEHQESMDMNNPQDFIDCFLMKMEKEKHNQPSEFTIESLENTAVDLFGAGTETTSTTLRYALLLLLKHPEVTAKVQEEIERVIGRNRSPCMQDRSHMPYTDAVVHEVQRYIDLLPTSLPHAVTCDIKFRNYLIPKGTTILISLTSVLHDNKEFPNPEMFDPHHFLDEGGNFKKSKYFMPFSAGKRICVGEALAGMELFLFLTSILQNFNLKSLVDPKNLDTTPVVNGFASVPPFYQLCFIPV
Method: as §1

Structure (SMILES): CCCC/C=C\CCCCCCCCCc1cc(O)cc(O)c1 [5-[10(Z)-pentadecenyl]resorcinol]
- IC50 (CYP2C19): 3.2 ± 0.2 µM
- IC50 (CYP1A2 [1]): 91.1 µM
- Likelihood of causing HDI (CYP1A2 [2]): Remote
- Plasma concentration (CYP1A2 [2]): 0.774 µg/mL
- Likelihood of causing HDI (CYP3A4): likely
- Plasma concentration (CYP3A4): 13.22 µg/mL
- Likelihood of causing HDI (CYP2C9): likely
- Plasma concentration (CYP2C9): 13.22 µg/mL

Structure (SMILES): CCCC/C=C\CCCCCCCCCc1cc(O)cc(OC)c1 [Belamcandol B]
- IC50 (CYP2C19): 3.2 ± 0.3 µM
- IC50 (CYP1A2 [1]): 220 µM
- Likelihood of causing HDI (CYP1A2 [2]): unlikely
- Plasma concentration (CYP1A2 [2]): 0.310 µg/mL
- Likelihood of causing HDI (CYP3A4): Remote
- Plasma concentration (CYP3A4): 1.52 µg/mL
- Likelihood of causing HDI (CYP2C9): remote

Structure (SMILES): CCCC/C=C\CCCCCCCCCC1=C(c2c(O)cc(O)cc2CCCCCCCCC/C=C\CCCC)C(=O)C=C(OC)C1=O [Demethylbelamcandaquinone B]
- IC50 (CYP2C19): 11 ± 0.7 µM
- IC50 (CYP1A2 [1]): 75.4 µM
- Likelihood of causing HDI (CYP1A2 [2]): unlikely
- Plasma concentration (CYP1A2 [2]): 0.722 µg/mL
- Likelihood of causing HDI (CYP3A4): unlikely
- Plasma concentration (CYP3A4): 0.79 µg/mL
- Likelihood of causing HDI (CYP2C9): likely
- Plasma concentration (CYP2C9): 0.79 µg/mL

Structure (SMILES): CCCC/C=C\CCCCCCCCCc1cc(O)cc2oc3cc(OC)c(O)c(CCCCCCCCC/C=C\CCCC)c3c12 [Fatimahol]
- IC50 (CYP2C19): 16 ± 1.1 µM
- IC50 (CYP1A2 [1]): 47.9 µM
- Likelihood of causing HDI (CYP1A2 [2]): unlikely
- Plasma concentration (CYP1A2 [2]): 0.016 µg/mL
- Likelihood of causing HDI (CYP3A4): unlikely
- Plasma concentration (CYP3A4): 0.016 µg/mL
- Likelihood of causing HDI (CYP2C9): unlikely
- Plasma concentration (CYP2C9): 0.016 µg/mL
